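1) Cells in 96-well plates. 2) Compound, 48 h, 5 concentrations. 3) Linear interpolation between surrounding doses. 4) Unreached endpoint = highest concentration. GI50 = concentration required for 50% inhibition of growth. The concentration for full growth arrest is given as TGI.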
Legend:
Assay in all cases: NCI-60 cell line screen, 48 h
[1] = tested on: K-562 leukemia
[2] = tested on: HCT-116 colon
[3] = tested on: UO-31 renal
[4] = tested on: UACC-257 melanoma
[5] = tested on: NCI-H460 lung
[6] = tested on: MDA-MB-435
[7] = tested on: U251 CNS
[8] = tested on: MDA-MB-231 breast
[9] = tested on: RPMI-8226 leukemia
[10] = tested on: HS 578T breast

SMILES	TGI [1]	TGI [2]	TGI [3]	TGI [4]	TGI [5]	TGI [6]	TGI [7]	TGI [8]	TGI [9]	TGI [10]	GI50 [5]	GI50 [10]
Cc1sc2nc3n(sc4nc5sc(C)c(C)c5c(=O)n43)c(=O)c2c1C	> 100 µM	> 100 µM	> 100 µM	> 100 µM	> 100 µM	> 100 µM	> 100 µM	> 100 µM	> 100 µM	> 100 µM		
NC(=O)CC[C@H]1C(=O)N=C(N)N1C(=O)OCc1ccccc1	> 100 µM	> 100 µM	> 100 µM	> 100 µM	> 100 µM	> 100 µM	> 100 µM	> 100 µM	> 100 µM	> 100 µM		
CCOC(=O)c1c(SCCN2CCCCC2)n(-c2ccccc2)c(=S)n(-c2ccccc2)c1=O	11 µM	4.89 µM	33.9 µM	17.1 µM	> 100 µM	31.5 µM	> 68.2 µM	38.4 µM	> 21.9 µM	80.1 µM		
CCn1c(O)c(C(=O)NC(C)c2ccc([N+](=O)[O-])cc2)c(=O)n(CC)c1=S (configuration not stated)	3.6 µM	4.45 µM	5.58 µM	16.6 µM	9.36 µM	13.6 µM	13.1 µM	10.8 µM	15 µM	7.42 µM		
CCn1c(SCc2nnc(Nc3ccccc3)s2)nc2ccccc2c1=O	> 73.2 µM	3.97 µM	12.1 µM	51.9 µM	4.77 µM	> 100 µM	5.3 µM	10.2 µM	37.1 µM	8.56 µM		
O=[N+]([O-])c1cccc([N+](=O)[O-])c1Cl	> 100 µM	> 100 µM	2.86 µM	23.6 µM	> 100 µM	35.3 µM	25.8 µM	51.7 µM	> 100 µM	82.3 µM		
CC(=O)NCC1OC2COC(c3ccccc3)OC2C2N=C(c3ccccc3)OC12 (configuration not stated)	> 100 µM	> 100 µM	> 100 µM	> 100 µM	> 100 µM	> 100 µM	> 100 µM	> 100 µM	89.1 µM	> 100 µM		
CN(c1ccc(Cl)cc1)S(=O)(=O)c1ccccc1	> 100 µM	> 100 µM	> 100 µM	> 100 µM	> 100 µM	> 100 µM	> 100 µM	> 100 µM	> 100 µM	> 100 µM		
C=C(C)C(=O)O[C@H]1CC2(CO)O[C@@H]2CC/C(COC(C)=O)=C/C2OC(=O)C(=C)[C@@H]21 (some centres not stated)	74 µM	39.4 µM	59.4 µM	43.1 µM	> 100 µM	> 61.3 µM	> 100 µM	> 100 µM	31.3 µM	> 100 µM		
O=c1cnc2cc3ccccc3cc2[nH]1	> 100 µM	> 100 µM	> 100 µM	> 100 µM	> 100 µM	> 100 µM	> 100 µM	> 100 µM	> 100 µM	> 100 µM		
O=C1Sc2cc3ccccc3cc2C(=O)Sc2cc3ccccc3cc21	> 100 µM	38.5 µM	37.1 µM	> 78.7 µM	> 100 µM	> 100 µM	> 100 µM	> 100 µM	> 24.6 µM	> 100 µM		
C=C(C)[C@@H]1CC[C@]2(C(=O)OC3OC(COC4OC(CO)C(OC5OC(C)C(O)C(O)C5O)C(O)C4O)C(O)C(O)C3O)CC[C@]3(C)[C@H](CC[C@@H]4[C@@]5(C)CC[C@H](O)[C@@](C)(CO)[C@@H]5CC[C@]43C)[C@@H]12 (some centres not stated)	> 6.45 µM	> 6.75 µM	> 10 µM	> 10 µM	5.11 µM	> 10 µM	> 10 µM	> 9.18 µM	> 5.92 µM	> 9.62 µM		
Nc1cc2ncnc(Nc3cccc(Br)c3)c2cn1	> 100 µM	> 100 µM	> 100 µM	> 100 µM	> 100 µM	> 100 µM	> 100 µM	> 100 µM	> 100 µM	> 100 µM		
Cc1cc(C)c(C#N)c(SC(=S)NC(=O)c2ccccc2)n1	> 100 µM	> 100 µM	> 100 µM	> 100 µM	> 100 µM	> 100 µM	> 100 µM	> 100 µM	> 100 µM	> 100 µM		
Cc1cc2nc3c(N)nn(CCN(C)C)c3nc2cc1C	> 100 µM	> 100 µM	> 100 µM	> 100 µM	> 100 µM	> 100 µM	> 100 µM	> 100 µM	> 100 µM	> 100 µM		
C/C=C\C(CC(=O)NCCc1c[nH]c2ccccc12)CC(=O)OC (configuration not stated)	> 100 µM	> 100 µM	> 100 µM	> 100 µM	> 100 µM	> 100 µM	> 100 µM	> 100 µM	> 100 µM	> 100 µM		

SMILES	TGI [1]	TGI [2]	TGI [3]	TGI [4]	TGI [5]	TGI [6]	TGI [7]	TGI [8]	TGI [9]	TGI [10]	GI50 [5]	GI50 [10]
C/C(=C\COP(=O)(O)OP(=O)(O)O)CC/C=C(\C)CNc1ccccc1	> 50 µM	> 50 µM	> 50 µM	> 50 µM	> 50 µM	> 50 µM	> 50 µM	> 50 µM	0.0403 µM	> 50 µM		
CCOC(=O)COC1=Nc2cc(OC)c(OC)c3nc(Cl)cc(c23)C1=O	7.2 µM	3.1 µM	4.13 µM	3.21 µM	39.3 µM	2.93 µM	8.49 µM	3.28 µM	> 100 µM	> 20.6 µM		
CCCOC1OC(CS(=O)(=O)O)C(OC(C)=O)C(OC(C)=O)C1OC(C)=O (configuration not stated)	> 100 µM	> 100 µM	> 100 µM	> 100 µM	> 100 µM	> 100 µM	> 100 µM	> 100 µM	> 100 µM	> 100 µM		
CCOC(=O)NC(OCc1ccccc1)(C(=O)OC)C(F)(F)F (configuration not stated)	> 100 µM	> 100 µM	> 100 µM	> 100 µM	> 100 µM	> 100 µM	> 100 µM	> 100 µM	> 100 µM	> 100 µM		
COc1ccc(C(=O)/C=C/c2ccc(OCCCOc3ccc(/C=C/C(=O)c4ccc(OC)c(OC)c4)cc3)cc2)cc1OC	> 100 µM	> 100 µM	> 100 µM	> 100 µM	> 100 µM	> 100 µM	> 100 µM	> 100 µM	> 100 µM	> 100 µM		
CN1CCCC(OC(=O)c2cc3cc(CCl)ccc3oc2=O)C1 (configuration not stated)	> 100 µM	48.7 µM	32.5 µM	40.2 µM	44.9 µM	41.6 µM	30.1 µM	52.1 µM	89.1 µM	56.6 µM		
O=C1NC(=S)N/C1=C\c1ccc(Sc2ccccc2C(=O)O)s1	> 100 µM	> 100 µM	> 100 µM	> 100 µM	> 100 µM	> 100 µM	> 100 µM	> 100 µM	> 100 µM	> 100 µM		
CC1Cc2c(cc(N)nc2Br)NC1=O (configuration not stated)	> 100 µM	> 100 µM	> 100 µM	> 100 µM	> 100 µM	> 100 µM	> 100 µM	> 100 µM	> 100 µM	> 100 µM		
COC(CC1(CCNc2ccccc2)C(=O)N(COCC[Si](C)(C)C)c2ccccc21)OC (configuration not stated)	> 100 µM	32.5 µM	29.6 µM	29.5 µM	34.4 µM	38.5 µM	> 61 µM	48.4 µM	> 100 µM	41.4 µM		
COC(C[C@H]1CCCC[C@]1(O)/C(=C\CO[Si](C(C)C)(C(C)C)C(C)C)Sc1ccccc1)OC	> 100 µM	85.1 µM	> 100 µM	> 100 µM	> 100 µM	> 100 µM	51.8 µM	49.8 µM	38.4 µM	> 100 µM		
CCC1(O)CC(O)c2c(O)c3c(c(O)c2C1C(=O)OC)C(=O)c1cccc(O)c1C3=O (configuration not stated)	> 21.8 µM	11.7 µM	13.2 µM	21.8 µM	14.2 µM	> 100 µM	16.6 µM	13 µM	> 23.1 µM	24.5 µM		
O=c1[nH]nc(N/N=C\c2ccc(Cl)cc2)c2ccccc12	81.1 µM	53.2 µM	38.7 µM	49.3 µM	47.9 µM	32.4 µM	38.2 µM	43.7 µM	> 100 µM	62.7 µM		
COc1ccc(OC)c(-c2cn3c(n2)sc2ccccc23)c1	> 100 µM	> 100 µM	> 100 µM	> 100 µM	> 100 µM	> 100 µM	> 100 µM	> 100 µM	> 100 µM	> 100 µM		
c1ccc2c(c1)ccc1nc(-c3ccc4c(c3)OCO4)c3c(c12)CCC3	> 100 µM	> 100 µM	> 100 µM	> 100 µM	> 100 µM	> 100 µM	> 100 µM	> 100 µM	> 100 µM	> 100 µM		
COc1ccc2c3c([nH]c2c1)-c1nc2ccccc2c(=O)n1CC3	> 25 µM	> 25 µM	> 25 µM	> 25 µM	> 25 µM	> 25 µM	> 25 µM	> 25 µM	> 25 µM	10.6 µM	1.38 µM	1.59 µM
